Measured values from patent US12599136B2, “Substituted isophthalic acid diamides and their use as herbicides” (Bayer Aktiengesellschaft, priority 2020, dated 2026).

Columns and labels:
Assay type in all cases: in vivo
[1] = system: Abutilon theophrasti; assay: Pre-emergence herbicidal action against ABUTH; conditions: Dosage column 320 g/ha (heading prints 3200 g/ha); visual score after 3 weeks vs untreated controls
Procedure, shortened: (§1)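 Sandy loam pots, seeds covered with soil, then surface-treated with WP or EC formulations at 600–800 l/ha water plus 0.2% wetting agent. Greenhouse, 3 weeks. Percent damage vs untreated controls.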

[2] = system: Alopecurus myosuroides; assay: Pre-emergence herbicidal action against ALOMY; conditions: visual score after 3 weeks vs untreated controls
Procedure, shortened: as §1

[3] = system: Amaranthus retroflexus; assay: Pre-emergence herbicidal action against AMARE; conditions: visual score after 3 weeks vs untreated controls
Procedure, shortened: as §1

[4] = system: Avena fatua; assay: Pre-emergence herbicidal action against AVEFA; conditions: visual score after 3 weeks vs untreated controls
Procedure, shortened: as §1

[5] = system: Cyperus esculentus; assay: Pre-emergence herbicidal action against CYPES; conditions: visual score after 3 weeks vs untreated controls
Procedure, shortened: as §1

[6] = system: Echinochloa crus-galli; assay: Pre-emergence herbicidal action against ECHCG; conditions: visual score after 3 weeks vs untreated controls
Procedure, shortened: as §1

[7] = system: Matricaria inodora; assay: Pre-emergence herbicidal action against MATIN; conditions: visual score after 3 weeks vs untreated controls
Procedure, shortened: as §1

[8] = system: Pharbitis purpurea; assay: Pre-emergence herbicidal action against PHBPU; conditions: visual score after 3 weeks vs untreated controls
Procedure, shortened: as §1

[9] = system: Hordeum murinum; assay: Pre-emergence herbicidal action against HORMU; conditions: visual score after 3 weeks vs untreated controls
Procedure, shortened: as §1

[10] = system: Lolium rigidum; assay: Pre-emergence herbicidal action against LOLRI
Procedure, shortened: as §1

[11] = system: Polygonum convolvulus; assay: Pre-emergence herbicidal action against POLCO
Procedure, shortened: as §1

[12] = system: Setaria viridis; assay: Pre-emergence herbicidal action against SETVI
Procedure, shortened: as §1

[13] = system: Stellaria media; assay: Pre-emergence herbicidal action against STEME
Procedure, shortened: as §1

[14] = system: Veronica persica; assay: Pre-emergence herbicidal action against VERPE
Procedure, shortened: as §1

[15] = system: Viola tricolor; assay: Pre-emergence herbicidal action against VIOTR
Procedure, shortened: as §1

[16] = system: Abutilon theophrasti; assay: Post-emergence herbicidal action against ABUTH
Procedure, shortened: (§2)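 Visual % rating (0% = as untreated, 100% = dead) ~3 wk after spraying one-leaf-stage plants grown in sandy loam; WP/EC in water at 600–800 l/ha, 0.2% wetting agent.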

[17] = system: Alopecurus myosuroides; assay: Post-emergence herbicidal action against ALOMY
Procedure, shortened: as §2

[18] = system: Amaranthus retroflexus; assay: Post-emergence herbicidal action against AMARE; conditions: visual assessment about 3 weeks after treatment
Procedure, shortened: as §2

[19] = system: Avena fatua; assay: Post-emergence herbicidal action against AVEFA; conditions: visual assessment about 3 weeks after treatment
Procedure, shortened: as §2

[20] = system: Cyperus esculentus; assay: Post-emergence herbicidal action against CYPES; conditions: visual assessment about 3 weeks after treatment
Procedure, shortened: as §2

[21] = system: Echinochloa crus-galli; assay: Post-emergence herbicidal action against ECHCG; conditions: visual assessment about 3 weeks after treatment
Procedure, shortened: as §2

[22] = system: Matricaria inodora; assay: Post-emergence herbicidal action against MATIN; conditions: visual assessment about 3 weeks after treatment
Procedure, shortened: as §2

[23] = system: Pharbitis purpurea; assay: Post-emergence herbicidal action against PHBPU; conditions: visual assessment about 3 weeks after treatment
Procedure, shortened: as §2

[24] = system: Hordeum murinum; assay: Post-emergence herbicidal action against HORMU
Procedure, shortened: as §2

[25] = system: Lolium rigidum; assay: Post-emergence herbicidal action against LOLRI
Experimental: Seeds of monocotyledonous and dicotyledonous weed and crop plants are laid out in sandy loam soil in wood-fiber pots, covered with soil and cultivated in a greenhouse under good growth conditions. 2 to 3 weeks after sowing, the test plants are treated at the one-leaf stage. The compounds of the invention, formulated in the form of wettable powders (WP) or as emulsion concentrates (EC), are then sprayed onto the green parts of the plants in the form of an aqueous suspension or emulsion at a water application rate equivalent to 600 to 800 l/ha, with addition of 0.2% wetting agent. After the test plants have been left to stand in the greenhouse under optimal growth conditions for about 3 weeks, the action of the preparations is assessed visually in comparison to untreated controls (herbicidal action in percent (%): 100% activity=the plants have died, 0% activity=like control plants). […] The tables below illustrate, in an illustrative manner, the post-emergence herbicidal action of the compounds of the invention, the herbicidal activity being stated in percent.

[26] = system: Polygonum convolvulus; assay: Post-emergence herbicidal action against POLCO; conditions: 80 g/ha, visual assessment about 3 weeks after treatment
Procedure, shortened: as §2

[27] = system: Setaria viridis; assay: Post-emergence herbicidal action against SETVI; conditions: visual assessment about 3 weeks after treatment
Procedure, shortened: as §2

[28] = system: Stellaria media; assay: Post-emergence herbicidal action against STEME; conditions: visual assessment about 3 weeks after treatment
Procedure, shortened: as §2

[29] = system: Veronica persica; assay: Post-emergence herbicidal action against VERPE; conditions: visual assessment about 3 weeks after treatment
Procedure, shortened: as §2

[30] = system: Viola tricolor; assay: Post-emergence herbicidal action against VIOTR
Procedure, shortened: as §2

SMILES: CCN(C)C(=O)c1c(C(F)(F)F)ccc(C(=O)Nc2nnnn2C)c1Cl [Example 1-124]
- Pre-emergence action against ABUTH [1]: 90%
- Pre-emergence action against ALOMY ([2]; 20 g/ha): 80%
- Pre-emergence action against ALOMY ([2]; 80 g/ha): 90%
- Pre-emergence action against ALOMY ([2]; 320 g/ha): 100%
- Pre-emergence action against AMARE ([3]; 20 g/ha): 90%
- Pre-emergence action against AMARE ([3]; 80 g/ha): 90%
- Pre-emergence action against AMARE ([3]; 320 g/ha): 100%
- Pre-emergence action against AVEFA ([4]; 80 g/ha): 80%
- Pre-emergence action against AVEFA ([4]; 320 g/ha): 100%
- Pre-emergence action against CYPES ([5]; 80 g/ha): 80%
- Pre-emergence action against CYPES ([5]; 320 g/ha): 90%
- Pre-emergence action against ECHCG ([6]; 20 g/ha): 80%
- Pre-emergence action against ECHCG ([6]; 80 g/ha): 100%
- Pre-emergence action against ECHCG ([6]; 320 g/ha): 100%
- Pre-emergence action against MATIN ([7]; 20 g/ha): 80%
- Pre-emergence action against MATIN ([7]; 80 g/ha): 90%
- Pre-emergence action against MATIN ([7]; 320 g/ha): 100%
- Pre-emergence action against PHBPU ([8]; 80 g/ha): 80%
- Pre-emergence action against PHBPU ([8]; 320 g/ha): 90%
- Pre-emergence action against HORMU ([9]; 80 g/ha): 90%
- Pre-emergence action against HORMU ([9]; 320 g/ha): 90%
- Pre-emergence action against LOLRI ([10]; 80 g/ha): 80%
- Pre-emergence action against LOLRI ([10]; 320 g/ha): 100%
- Pre-emergence action against POLCO ([11]; 80 g/ha): 80%
- Pre-emergence action against POLCO ([11]; 320 g/ha): 80%
- Pre-emergence action against SETVI ([12]; 20 g/ha): 90%
- Pre-emergence action against SETVI ([12]; 80 g/ha): 100%
- Pre-emergence action against SETVI ([12]; 320 g/ha): 100%
- Pre-emergence action against STEME ([13]; 20 g/ha): 90%
- Pre-emergence action against STEME ([13]; 80 g/ha): 90%
- Pre-emergence action against STEME ([13]; 320 g/ha): 90%
- Pre-emergence action against VERPE ([14]; 80 g/ha): 80%
- Pre-emergence action against VERPE ([14]; 320 g/ha): 100%
- Pre-emergence action against VIOTR ([15]; 80 g/ha): 100%
- Pre-emergence action against VIOTR ([15]; 320 g/ha): 100%
- Post-emergence action against ABUTH ([16]; 5 g/ha): 100%
- Post-emergence action against ABUTH ([16]; 20 g/ha): 100%
- Post-emergence action against ABUTH ([16]; 80 g/ha): 100%
- Post-emergence action against ALOMY ([17]; 5 g/ha): 90%
- Post-emergence action against ALOMY ([17]; 20 g/ha): 100%
- Post-emergence action against ALOMY ([17]; 80 g/ha): 100%
- Post-emergence action against AMARE in % ([18]; 5 g/ha): 100%
- Post-emergence action against AMARE in % ([18]; 20 g/ha): 100%
- Post-emergence action against AMARE in % ([18]; 80 g/ha): 100%
- Post-emergence action against AVEFA in % ([19]; 5 g/ha): 80%
- Post-emergence action against AVEFA in % ([19]; 20 g/ha): 100%
- Post-emergence action against AVEFA in % ([19]; 80 g/ha): 100%
- Post-emergence action against CYPES in % ([20]; 20 g/ha): 80%
- Post-emergence action against CYPES in % ([20]; 80 g/ha): 80%
- Post-emergence action against ECHCG in % ([21]; 5 g/ha): 100%
- Post-emergence action against ECHCG in % ([21]; 20 g/ha): 100%
- Post-emergence action against ECHCG in % ([21]; 80 g/ha): 100%
- Post-emergence action against MATIN in % ([22]; 20 g/ha): 100%
- Post-emergence action against MATIN in % ([22]; 80 g/ha): 100%
- Post-emergence action against PHBPU in % ([23]; 5 g/ha): 80%
- Post-emergence action against PHBPU in % ([23]; 20 g/ha): 90%
- Post-emergence action against PHBPU in % ([23]; 80 g/ha): 90%
- Post-emergence action against HORMU in % ([24]; 5 g/ha): 80%
- Post-emergence action against HORMU in % ([24]; 20 g/ha): 90%
- Post-emergence action against HORMU in % ([24]; 80 g/ha): 100%
- Post-emergence action against LOLRI in % ([25]; 20 g/ha): 90%
- Post-emergence action against LOLRI in % ([25]; 80 g/ha): 100%
- Post-emergence action against POLCO in % [26]: 90%
- Post-emergence action against SETVI in % ([27]; 5 g/ha): 100%
- Post-emergence action against SETVI in % ([27]; 20 g/ha): 100%
- Post-emergence action against SETVI in % ([27]; 80 g/ha): 100%
- Post-emergence action against STEME in % ([28]; 5 g/ha): 100%
- Post-emergence action against STEME in % ([28]; 20 g/ha): 100%
- Post-emergence action against STEME in % ([28]; 80 g/ha): 100%
- Post-emergence action against VERPE in % ([29]; 5 g/ha): 80%
- Post-emergence action against VERPE in % ([29]; 20 g/ha): 80%
- Post-emergence action against VERPE in % ([29]; 80 g/ha): 100%
- Post-emergence action against VIOTR in % ([30]; 5 g/ha): 100%
- Post-emergence action against VIOTR in % ([30]; 20 g/ha): 100%
- Post-emergence action against VIOTR in % ([30]; 80 g/ha): 100%
